Source: PMC8406801, “Naringenin Inhibits Platelet Activation and Arterial Thrombosis Through Inhibition of Phosphoinositide 3-Kinase and Cyclic Nucleotide Signaling” (Frontiers in Pharmacology, 2021)
Values joined by “and” are separate entries in the source; they are usually repeats but may differ in a detail not shown here. Equal values may be shown once.

Key:
washed rat platelets = experiment: ADP (10 μM)-induced aggregation of washed rat platelets; assay type: cell-based; settings: for ADP-induced platelet aggregation (control group taken as 100%): mean ± SD, n = 6
Experimental: Platelet-rich plasma (PRP) was obtained, and after the addition of 100 ng/ml PGE1, platelets were pelleted at 900 × g for 10 min. […] Washed platelets were preincubated with vehicle (0.4% dimethyl sulfoxide) or various concentrations of naringenin in the presence of 2 mM CaCl2 for 5 min at 37°C, and then further stimulated by ADP (10 μM), thrombin (0.2 U/mL) or collagen (2 μg/ml). The maximum platelet aggregation rate was detected within 5 min with continuous stirring.
Platelet aggregation was induced by ADP using washed platelets and PRP. Washed platelets were preincubated with vehicle (containing 0.4% DMSO) or different doses (100, 200, 400, and 800 μM) of naringenin or naringin for 5 min before activation with ADP (10 μM) for 5 min.
FIGURE 1 Effects of naringenin and naringin on platelet aggregation. Chemical structure of naringin (A) and naringenin (B). The effects of naringin (C) or naringenin (D) on PRP were measured following stimulation with 10 μmol/L ADP. Rat washed platelet aggregation performed with or without different concentrations of naringin (E) or naringenin (F) was recorded after stimulation with 10 μmol/L ADP. Similarly, Washed platelet aggregation performed with vehicle or various concentrations of naringenin was recorded after stimulation with 0.2 U/mL thrombin (G) or 2 μg/ml collagen (H). WP represents washed platelets. Data are expressed as means ± SD (n = 6), the level of aggregation obtained at 5 min with vehicle-treated samples (0 μM) was taken as 100%. *p < 0.05, **p < 0.01, ***p < 0.001 compared with the vehicle control group.

[1] = test system: VASP Ser239 phosphorylation; experiment: Immunoblotting of phospho-VASP (Ser239) in ADP-stimulated washed platelets, with or without PKA, PKG, PKC inhibitors; assay type: cell-based, rat; settings: for p-VASP(Ser239) / GAPDH (Fold to ADP only) / p-VASP(Ser239) / GAPDH (raw data): ADP-stimulated, Figure 7C
Experimental: For in vitro platelet aggregation, aliquots of washed platelets were preincubated with vehicle or various concentrations of naringenin for 5 min and stimulated with ADP (10 μmol/L) under stirring at 37°C for 5 min. For ex vivo platelet aggregation, PRP was incubated at 37°C for 5 min and stimulated with ADP (5 μmol/L) under stirring at 37 °C. The platelet aggregation was terminated by adding ethylenediaminetetraacetic acid (EDTA; 10 mM). Total protein was prepared using RIPA lysis buffer and protein content was determined by bicinchoninic acid (BCA) protein assay kit. Equal amounts of platelet proteins (30 μg) were separated on 10% SDS polyacrylamide gel electrophoresis (SDS-PAGE) and then transferred to poly vinylidene difluoride (PVDF) membranes and subjected to western blot. Blots were blocked with TBS-Tween 20 containing 5% BSA and probed with primary antibodies diluted in blocking solution at 4°C overnight followed by incubation with the corresponding HRP secondary antibodies. The protein bands were visualized using enhanced chemiluminescence (ECL).
VASP is a substrate for cAMP- and cGMP- dependent protein kinases, which mediate cAMP- and cGMP-dependent inhibitory signaling in platelets, respectively. Increased cAMP levels followed by the activation of cAMP-dependent protein kinase A (PKA) phosphorylates VASP at position Ser157, whereas the elevation of cGMP leads to VASP phosphorylation at position Ser239 by cGMP-dependent protein kinase G (PKG) ([Aszódi et al., 1999]; [Li et al., 2003a]). To further examine whether naringenin modulates cAMP- or cGMP-mediated inhibitory signaling, the phosphorylation of VASP (Ser157 and Ser239) in washed platelets on stimulation with ADP were measured in the absence or presence of naringenin (100, 200, 400, and 800 μM). […] To further confirm the antiplatelet effects of naringenin through PKA-dependent signaling, the effects of naringenin on platelet aggregation were measured in the presence of PKG inhibitor (Rp-8-Br-PET-cGMPS) and PKA inhibitor (H89).
FIGURE 7 Naringenin promotes VASP phosphorylation. The effects of naringenin on phosphorylation of VASP (at positions Ser 157 and Ser239) were measured in washed platelets upon stimulation with ADP (10 μmol/L) by western blotting (A). The blots shown are representative of three separate experiments. The phosphorylation levels were quantified by ImageJ 1.47v software. The level of phosphorylation obtained with vehicle control (0 μM) was taken as 1 (B,C). R represents the phosphorylation level in resting platelets. Data are expressed as means ± SD (n = 3). *p < 0.05, ***p < 0.001 compared with the vehicle control group. VASP phosphorylation at Ser239 was also analyzed in washed platelets incubated with 5 μmol/L PKA (H89), 30 μmol/L PKG (Rp-8-Br-PET-cGMPS), or 5 μmol/L PKC (GF109203X) inhibitors before treatment with naringenin (D). Washed platelets were incubated with vehicle or naringenin (200 μmol/L) at 37°C in the presence or absence of 5 μmol/L PKA (H89) or 30 μmol/L PKG (Rp-8-Br-PET-cGMPS) inhibitors. After treatment, platelets were stimulated with ADP (10 μmol/L) to trigger aggregation (E). Data are expressed as means ± SD (n = 6). ***p < 0.001 compared with the ADP-treated group, ^# p < 0.05, ^### p < 0.001 compared with naringenin alone or H89 alone.

O=C1C[C@@H](c2ccc(O)cc2)Oc2cc(O)cc(O)c21 [Naringenin]
IC50 (washed rat platelets; ADP 10 μM): ~118 µM
reduction of aggregation of washed platelets (washed rat platelets; ADP-induced, 100 μM): 45%
Aggregation (%) (washed rat platelets; Figure 5A: washed platelets, ADP 10 μM, naringenin 200 μM alone, single replicates): 38.3% and 37.5% and 34.7% and 44.0% and 29.6% and 42.4%
IC50 (washed rat platelets; Rattus norvegicus, Platelet, ADP 10 μM): 118 ± 10.4 µM
activity at 100 µM (washed rat platelets; Rattus norvegicus, Platelet, washed platelets, ADP 10 μmol/L, compound 100 μM, single replicates, read-out: Aggregation % of control): 50.4%
activity at 400 µM (washed rat platelets; Rattus norvegicus, Platelet, washed platelets, ADP 10 μmol/L, compound 400 μM, single replicates, read-out: Aggregation % of control): 12%
activity at 800 µM (washed rat platelets; Rattus norvegicus, Platelet, washed platelets, ADP 10 μmol/L, compound 800 μM, single replicates, read-out: Aggregation % of control): 6.7%
level of inhibition relative to naringin (washed rat platelets; washed platelets, ADP 10 μM, 800 μM): 11 fold
ADP-induced platelet aggregation (control group taken as 100%) (washed rat platelets; washed platelets, ADP 10 μM, compound 100 μM): 54.5 ± 6.2%
ADP-induced platelet aggregation (control group taken as 100%) (washed rat platelets; washed platelets, ADP 10 μM, compound 800 μM): 6.3 ± 1.7%
Aggregation (%) (washed rat platelets; washed platelets, ADP 10 μmol/L, compound 100 μM, raw data, single replicates): 35.6% and 34.2% and 43.2% and 37.5% and 36.0% and 44.7%
Aggregation % of control (washed rat platelets; washed platelets, ADP 10 μmol/L, compound 100 μM, single replicates, 100 µM): 48.4 % of control and 61.1 % of control and 53.1 % of control and 51.0 % of control and 63.3 % of control
Aggregation (%) (washed rat platelets; washed platelets, ADP 10 μmol/L, compound 200 μM, raw data, single replicates): 24.7% and 26.3% and 34.7% and 21.2% and 13.9% and 29.4%
Aggregation % of control (washed rat platelets; washed platelets, ADP 10 μmol/L, compound 200 μM, single replicates, 200 µM): 35.0 % of control and 37.2 % of control and 49.1 % of control and 30.0 % of control and 19.7 % of control and 41.6 % of control
Aggregation (%) (washed rat platelets; washed platelets, ADP 10 μmol/L, compound 400 μM, raw data, single replicates): 8.5% and 6.2% and 6.9% and 8.1% and 8.7% and 7.6%
Aggregation % of control (washed rat platelets; washed platelets, ADP 10 μmol/L, compound 400 μM, single replicates, 400 µM): 8.8 % of control and 9.8 % of control and 11.5 % of control and 12.3 % of control and 10.8 % of control
Aggregation (%) (washed rat platelets; washed platelets, ADP 10 μmol/L, compound 800 μM, raw data, single replicates): 4.7% and 3.7% and 5.6% and 6.1% and 3.6% and 3.1%
Aggregation % of control (washed rat platelets; washed platelets, ADP 10 μmol/L, compound 800 μM, single replicates, 800 µM): 5.2 % of control and 7.9 % of control and 8.6 % of control and 5.1 % of control and 4.4 % of control
phosphorylation of VASP at Ser239 ([1]; ADP-stimulated washed platelets, 100, 200, 400, and 800 μM): induced the phosphorylation of VASP at Ser239
p-VASP(Ser239) / GAPDH (Fold to ADP only) ([1]; naringenin 100 μM): 5.3418 and 4.6396 and 5.0239
p-VASP(Ser239) / GAPDH (raw data) ([1]; naringenin 100 μM): 0.6957 and 0.6043 and 0.6543
p-VASP(Ser239) / GAPDH (Fold to ADP only) ([1]; naringenin 200 μM): 4.4032 and 4.7219 and 3.7689
p-VASP(Ser239) / GAPDH (raw data) ([1]; naringenin 200 μM): 0.5735 and 0.6150 and 0.4909
p-VASP(Ser239) / GAPDH (Fold to ADP only) ([1]; naringenin 400 μM): 4.5890 and 4.9045 and 3.3393
p-VASP(Ser239) / GAPDH (raw data) ([1]; naringenin 400 μM): 0.5977 and 0.6388 and 0.4349
p-VASP(Ser239) / GAPDH (Fold to ADP only) ([1]; naringenin 800 μM): 5.3132 and 6.0564 and 4.7205
p-VASP(Ser239) / GAPDH (raw data) ([1]; naringenin 800 μM): 0.6920 and 0.7888 and 0.6148
